Laboratory results taken from US7868026B2, “Therapeutic compounds” (Pfizer Inc., priority 2005, dated 2011).
Read-outs that look alike come from different tables or passages of the source.

Tests used:
Type in all cases: biochemical
[1] = target: T1, CYP3A4 (Homo sapiens, UniProt P08684); assay: Determination of IC50 against CYP3A4 by measurement of inhibition of testosterone metabolism (human liver microsomes, 6-β-OH-testosterone by LC-MS/MS); design: 0.1 mg/mL human liver microsomes; details: read-out: IC50 (Testo.)
Procedure: 2. Determination of IC50 Against CYP3A4 by Measurement of Inhibition of Testosterone Metabolism
This assay was performed using a standard 96 well plate design. […] The incubation substrate mix contains 25 μM testosterone, 0.1 mg/mL human liver microsomes, 1 mM NADPH, and potassium phosphate buffer (100 mM, pH 7.4). Quantitation of metabolite peak area ratio against an internal standard is determined by LC-MS/MS analysis. The production of 6-β-OH-testosterone from testosterone metabolism is determined after incubation for eight minutes by comparison to a standard curve generated for the metabolite
Samples were analyzed in the MRM mode using a Sciex API 3000 mass spectrometer (Applied Biosystems, Foster City, Calif.) with a Paradigm MS4 binary pump (Michrom BioResources Inc., Auburn, Calif.) and a LEAP CTC PAL autosampler (LEAP Technologies, Carrboro, N.C.). A Phenomenex Synergi, 4μ, Polar-RP, 10×2.0 mm column (Phenomenex, Torrance, Calif.) was used for separation with a mobile phase composition of: 0.1% formic acid in water (A) and: 0.1% formic acid in methanol (B). The following gradient was used: […]
The sample injection volume was 10 μL and flow was split post-column with 0.4 mL/min going to the mass spectrometer. Analysis was performed using the following API 3000 mass spectrometer settings: […]

[2] = target: T1, CYP3A4; assay: Determination of compound Kiapp against recombinant CYP3A4 enzyme (BFC fluorescent substrate)
Method in brief: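 Recombinant CYP3A4 (5.5 or 8 nM, with or without b5 depending on source) pre-incubated with inhibitor ≥30 min at room temperature in 100 mM sodium phosphate pH 7.0, 5 mM TCEP, 2% DMF. Reaction started with 200 uM NADPH and 5 uM BFC; initial fluorescence rates over 5 min fitted to Morrison tight-binding (non-partial) or Szedlacsek (partial) equations for Kiapp.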

[3] = target: T1, CYP3A4; assay: Determination of IC50 against CYP3A4 by measurement of inhibition of midazolam metabolism (human liver microsomes, 1-hydroxymidazolam by LC-MS/MS); design: 0.1 mg/mL human liver microsomes; details: 2 μM midazolam, 0.1 mg/mL human liver microsomes
Method in brief: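 Human liver microsomes (0.1 mg/mL) incubated 8 min with 2 μM midazolam and 1 mM NADPH in 100 mM potassium phosphate, pH 7.4. 1-Hydroxymidazolam quantified by LC-MS/MS (MRM) as peak area ratio to internal standard against a metabolite standard curve.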

[4] = Baculo. enzyme preparation, read-out: Kiapp (BFC, Baculo.)
[5] = Super. enzyme preparation, read-out: Kiapp (BFC, Super.)

T1 sequence (P08684 whole entry): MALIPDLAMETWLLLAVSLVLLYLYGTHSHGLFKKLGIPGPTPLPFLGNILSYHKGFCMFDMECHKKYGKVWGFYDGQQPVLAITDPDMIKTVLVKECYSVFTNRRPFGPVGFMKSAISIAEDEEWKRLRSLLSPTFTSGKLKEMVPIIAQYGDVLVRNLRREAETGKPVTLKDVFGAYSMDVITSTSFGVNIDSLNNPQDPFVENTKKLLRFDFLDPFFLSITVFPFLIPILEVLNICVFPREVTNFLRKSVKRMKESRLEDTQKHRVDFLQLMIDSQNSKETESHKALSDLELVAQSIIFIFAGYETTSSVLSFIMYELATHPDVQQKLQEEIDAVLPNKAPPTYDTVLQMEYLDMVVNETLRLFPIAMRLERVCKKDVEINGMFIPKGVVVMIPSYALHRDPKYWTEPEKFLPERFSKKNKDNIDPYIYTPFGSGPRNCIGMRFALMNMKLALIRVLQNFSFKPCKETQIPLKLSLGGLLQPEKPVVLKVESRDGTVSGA

IC50 [1] [nM] | Ki [2, 4] [nM] | IC50 [3] [nM] | Ki [2, 5] [nM] | SMILES
77 | 239 | 45 |  | CC1CC(C)CN(C(=O)c2ccccc2S(=O)(=O)Nc2cccnc2)C1 (stereo not drawn) [Example 25, 2-[(3,5-dimethylpiperidin-1-yl)carbonyl]-N-pyridin-3-ylbenzenesulfonamide]
691 | > 1000 | 494 |  | COC1CCN(C(=O)c2ccccc2S(=O)(=O)Nc2cccnc2)CC1 [Example 26, 2-[(4-methoxypiperidin-1-yl)carbonyl]-N-pyridin-3-ylbenzenesulfonamide]
> 750 | > 1000 | 658 |  | C[C@@H]1CN(C(=O)c2ccccc2S(=O)(=O)Nc2cccnc2)C[C@H](C)O1 [Example 27, 2-{[(2R,6S)-2,6-dimethylmorpholin-4-yl]carbonyl}-N-pyridin-3-ylbenzenesulfonamide]
> 750 | > 1000 | > 750 |  | O=C(c1ccccc1S(=O)(=O)Nc1cccnc1)N1CCC(O)CC1 [Example 28, 2-[(4-hydroxypiperidin-1-yl)carbonyl]-N-pyridin-3-ylbenzenesulfonamide]
172 | 324 | 76 |  | CC1(C)CCCN(C(=O)c2ccccc2S(=O)(=O)Nc2cccnc2)C1 [Example 29, 2-[(3,3-dimethylpiperidin-1-yl)carbonyl]-N-pyridin-3-ylbenzenesulfonamide]
125 | 690 | 56 |  | Cc1cncc(NS(=O)(=O)c2ccccc2C(=O)N2CCCCC2)c1 [Example 30, N-(5-methylpyridin-3-yl)-2-(piperidin-1-ylcarbonyl)benzenesulfonamide]
473 | > 1000 | 111 |  | CC(C)(CN1CCOCC1)NC(=O)c1ccccc1S(=O)(=O)Nc1cccnc1 [Example 33, N-(1,1-dimethyl-2-morpholin-4-ylethyl)-2-[(pyridin-3-ylamino)sulfonyl]benzamide]
> 750 | > 1000 | > 750 |  | CC(C)(COCc1ccccc1)NC(=O)c1ccccc1S(=O)(=O)Nc1cccnc1 [Example 34, N-[2-(benzyloxy)-1,1-dimethylethyl]-2-[(pyridin-3-ylamino)sulfonyl]benzamide]
> 750 | > 1000 | > 750 |  | CN1CCN(C(=O)c2ccccc2S(=O)(=O)Nc2cccnc2)CC1 [Example 35, 2-[(4-methylpiperazin-1-yl)carbonyl]-N-pyridin-3-ylbenzenesulfonamide]
> 750 | > 1000 | > 750 |  | CCOC(=O)N1CCN(C(=O)c2ccccc2S(=O)(=O)Nc2cccnc2)CC1 [Example 36, ethyl 4-{2-[(pyridin-3-ylamino)sulfonyl]benzoyl} piperazine-1-carboxylate]
> 750 | > 1000 | > 750 |  | CN(C)CCNC(=O)c1ccccc1S(=O)(=O)Nc1cccnc1 [Example 37]
84 | 644 | 68 |  | CCC(C)(C)NC(=O)c1ccccc1S(=O)(=O)Nc1cccnc1 [Example 38, N-(1,1-dimethylpropyl)-2-[(pyridin-3-ylamino)sulfonyl]benzamide]
> 500 | > 1000 | > 500 |  | CC(C)(CO)NC(=O)c1ccccc1S(=O)(=O)Nc1cccnc1 [Example 39, N-(2-hydroxy-1,1-dimethylethyl)-2-[(pyridin-3-ylamino)sulfonyl]benzamide]
340 | > 1000 | 179 |  | CCN(CCn1cccn1)C(=O)c1ccccc1S(=O)(=O)Nc1cccnc1 [Example 40, N-ethyl-N-[2-(1H-pyrazol-1-yl)ethyl]-2-[(pyridin-3-ylamino)sulfonyl]benzamide]
83.4 | 486 | 62.8 | 30.3 | CC1CCN(C(=O)c2ccccc2S(=O)(=O)Nc2cccnc2)CC1 [Example 41, 2-[(4-methylpiperidin-1-yl)carbonyl]-N-pyridin-3-ylbenzenesulfonamide]
51.5 | 378 | 35.9 | 22.5 | CC(C)CCNC(=O)c1ccccc1S(=O)(=O)Nc1cccnc1 [Example 42, N-(3-methylbutyl)-2-[(pyridin-3-ylamino)sulfonyl]benzamide]

IC50 [1] [nM] | Ki [2, 4] [nM] | IC50 [3] [nM] | Ki [2, 5] [nM] | SMILES
21.7 | 269 | 13.4 | 16.5 | O=C(NCc1cccc(F)c1)c1ccccc1S(=O)(=O)Nc1cccnc1 [Example 43, N-(3-fluorobenzyl)-2-[(pyridin-3-ylamino)sulfonyl]benzamide]
167 | 617 | 72 |  | CC(C)(C)CNC(=O)c1ccccc1S(=O)(=O)Nc1cccnc1 [Example 44, N-(2,2-dimethylpropyl)-2-[(pyridin-3-ylamino)sulfonyl]benzamide]
42 | 382 | 20 |  | COc1cccc(OC)c1CNC(=O)c1ccccc1S(=O)(=O)Nc1cccnc1 [Example 45, N-(2,6-dimethoxybenzyl)-2-[(pyridin-3-ylamino)sulfonyl]benzamide]
23 | 325 | 23 |  | COc1cccc(CNC(=O)c2ccccc2S(=O)(=O)Nc2cccnc2)c1 [Example 46, N-(3-methoxybenzyl)-2-[(pyridin-3-ylamino)sulfonyl]benzamide]
30 | 332 | 26 |  | CCCCCN(C)C(=O)c1ccccc1S(=O)(=O)Nc1cccnc1 [Example 47, N-methyl-N-pentyl-2-[(pyridin-3-ylamino)sulfonyl]benzamide]
335 | > 1000 | 327 |  | O=C(NCC1CC1)c1ccccc1S(=O)(=O)Nc1cccnc1 [Example 48, N-(cyclopropylmethyl)-2-[(pyridin-3-ylamino)sulfonyl]benzamide]
> 500 | > 1000 | 328 |  | CC(C)NC(=O)c1ccccc1S(=O)(=O)Nc1cccnc1 [Example 49, N-isopropyl-2-[(pyridin-3-ylamino)sulfonyl]benzamide]
371 | > 1000 | 254 |  | CCCNC(=O)c1ccccc1S(=O)(=O)Nc1cccnc1 [Example 50, N-propyl-2-[(pyridin-3-ylamino)sulfonyl]benzamide]
57 | 680 | 34 |  | COc1cc(CNC(=O)c2ccccc2S(=O)(=O)Nc2cccnc2)cc(OC)c1 [Example 51, N-(3,5-dimethoxybenzyl)-2-[(pyridin-3-ylamino)sulfonyl]benzamide]
73 | 560 | 27 |  | O=C(NCc1cccc2[nH]ccc12)c1ccccc1S(=O)(=O)Nc1cccnc1 [Example 52, N-(1H-indol-4-ylmethyl)-2-[(pyridin-3-ylamino)sulfonyl]benzamide]
49 | 613 | 24 |  | COc1ccc(CNC(=O)c2ccccc2S(=O)(=O)Nc2cccnc2)c(OC)c1 [Example 53, N-(2,4-dimethoxybenzyl)-2-[(pyridin-3-ylamino)sulfonyl]benzamide]
26 | 239 | 15 |  | CCCN(CC1CC1)C(=O)c1ccccc1S(=O)(=O)Nc1cccnc1 [Example 54, N-(cyclopropylmethyl)-N-propyl-2-[(pyridin-3-ylamino)sulfonyl]benzamide]
54.5 | 385 | 40.6 | 14.2 | CN(Cc1ccccc1)C(=O)c1ccccc1S(=O)(=O)Nc1cccnc1 [Example 55, N-benzyl-N-methyl-2-[(pyridin-3-ylamino)sulfonyl]benzamide]
62 | 340 | 48.9 | 22.4 | O=C(NCCOc1ccccc1)c1ccccc1S(=O)(=O)Nc1cccnc1 [Example 56, N-(2-phenoxyethyl)-2-[(pyridin-3-ylamino)sulfonyl]benzamide]
93.3 | 353 | 69.6 | 35 | COc1ccc(CNC(=O)c2ccccc2S(=O)(=O)Nc2cccnc2)cc1 [Example 57, N-(4-methoxybenzyl)-2-[(pyridin-3-ylamino)sulfonyl]benzamide]

SMILES | IC50 [1] [nM] | Ki [2, 4] [nM] | IC50 [3] [nM] | Ki [2, 5] [nM]
CCCCNC(=O)c1ccccc1S(=O)(=O)Nc1cncc(C)c1 [Example 31, N-butyl-2-{[(5-methylpyridin-3-yl)amino]sulfonyl}benzamide] | 38 | 70.1 | 23 | 
